# Assay results as given in patent US10575537B2, “Saury Maillard peptide and its preparation method and application” (South China University of Technology, priority 2015, dated 2020).
# Marks after values point to notes of the source that are not given here.
# Assays:
# [1] = system: rats with hyperuricemia induced by oteracil potassium; experiment: serum creatinine and urea nitrogen content in rats with hyperuricemia induced by oteracil potassium; assay type: in vivo, rat; settings: 30 days, peptide samples 200 mg/kg, allopurinol 50 mg/kg
# Source text: (§1) As the index in the following examples, the experimental method of therapeutic effects of the peptide samples on the oteracil potassium-induced hyperuricemia in rats was as follow:
# (§2) Animals: 140 SPF grade SD male rats, weight 200±20 g, purchased from Laboratory Animal Center of Guangzhou University of Chinese Medicine.
# (§3) Animal grouping and modeling: Taking a total of 140 healthy male SD rats, and randomly dividing them into a normal control group (20 rats) and a model group (120 rats); the model group rats were gavage with oteracil potassium (daily dose: 2 g/kg) for 7 days, then the rat were anesthetized via intraperitoneally injecting 3% pentobarbital sodium (30 mg/kg) after the last administration, their blood was taken from conjunctival (0.5 ml), then centrifuging at 4° C. and 3000 r/min for 15 min, and taking the upper serum to determine the uric acid content, and the rats in the normal control group were treated with a constant volume of solvent by intragastric administration. The rats with the uric acid content above 110 μmol/L were identified to be successful in modeling. […]
# [2] = system: serum adenosine deaminase (ADA); experiment: serum ADA activity in rats with hyperuricemia induced by oteracil potassium; assay type: in vivo, rat; settings: 30 days, peptide samples 200 mg/kg, allopurinol 50 mg/kg
# Source text: as §1, §2, §3
# [3] = biological target: T1, serum xanthine oxidase (XOD) (Rattus norvegicus, UniProt P22985); experiment: serum XOD activity in rats with hyperuricemia induced by oteracil potassium; assay type: in vivo; settings: 30 days, peptide samples 200 mg/kg, allopurinol 50 mg/kg
# T1 construct: Taking 100 μl of serum for determination of XOD; from tissue; host or cells: serum of SD male rats
# Source text: as §1, §2, §3
# [4] = system: rats with hyperuricemia induced by oteracil potassium; experiment: serum uric acid content in rats with hyperuricemia induced by oteracil potassium; assay type: in vivo, rat
# Source text: as §1, §2
# Animal grouping and modeling: Taking a total of 140 healthy male SD rats, and randomly dividing them into a normal control group (20 rats) and a model group (120 rats); the model group rats were gavage with oteracil potassium (daily dose: 2 g/kg) for 7 days, then the rat were anesthetized via intraperitoneally injecting 3% pentobarbital sodium (30 mg/kg) after the last administration, their blood was taken from conjunctival (0.5 ml), then centrifuging at 4° C. and 3000 r/min for 15 min, and taking the upper serum to determine the uric acid content, and the rats in the normal control group were treated with a constant volume of solvent by intragastric administration. The rats with the uric acid content above 110 μmol/L were identified to be successful in modeling.
# The rats successful in modeling, according to the uric acid content, was randomly dividing into a model control group (constant volume solvent), a tested peptide sample group (200 mg/kg) and an allopurinol group (50 mg/kg) at 14 rats per group, and the rats were gavage with oteracil potassium (daily dose: 2 g/kg) at a dose of 10 ml/kg, with the model rats treated with a constant volume of distilled water. Administering 3% pentobarbital sodium (30 mg/kg) for 50 min at the end of administering the above-mentioned peptide samples for 10 days and 20 days, drawing the conjunctival blood (0.5 ml), and determining the serum uric acid content; after the 30th day of treatment with anti-gout peptides, drawing the celiac artery blood 5 ml after anesthesia with 3% pentobarbital sodium, and determining the content of serum creatinine and urea nitrogen in addition to determining the serum uric acid content.
# Determination of serum uric acid: using the tungstic acid method and strictly following the determination method from the kit instructions.
# Statistical treatment: all data is presented as “mean±standard deviation”, t test was performed to determine the significant difference between samples at the 95% confidence interval using SPSS 19.0 software.
# T1 sequence (P22985 whole entry): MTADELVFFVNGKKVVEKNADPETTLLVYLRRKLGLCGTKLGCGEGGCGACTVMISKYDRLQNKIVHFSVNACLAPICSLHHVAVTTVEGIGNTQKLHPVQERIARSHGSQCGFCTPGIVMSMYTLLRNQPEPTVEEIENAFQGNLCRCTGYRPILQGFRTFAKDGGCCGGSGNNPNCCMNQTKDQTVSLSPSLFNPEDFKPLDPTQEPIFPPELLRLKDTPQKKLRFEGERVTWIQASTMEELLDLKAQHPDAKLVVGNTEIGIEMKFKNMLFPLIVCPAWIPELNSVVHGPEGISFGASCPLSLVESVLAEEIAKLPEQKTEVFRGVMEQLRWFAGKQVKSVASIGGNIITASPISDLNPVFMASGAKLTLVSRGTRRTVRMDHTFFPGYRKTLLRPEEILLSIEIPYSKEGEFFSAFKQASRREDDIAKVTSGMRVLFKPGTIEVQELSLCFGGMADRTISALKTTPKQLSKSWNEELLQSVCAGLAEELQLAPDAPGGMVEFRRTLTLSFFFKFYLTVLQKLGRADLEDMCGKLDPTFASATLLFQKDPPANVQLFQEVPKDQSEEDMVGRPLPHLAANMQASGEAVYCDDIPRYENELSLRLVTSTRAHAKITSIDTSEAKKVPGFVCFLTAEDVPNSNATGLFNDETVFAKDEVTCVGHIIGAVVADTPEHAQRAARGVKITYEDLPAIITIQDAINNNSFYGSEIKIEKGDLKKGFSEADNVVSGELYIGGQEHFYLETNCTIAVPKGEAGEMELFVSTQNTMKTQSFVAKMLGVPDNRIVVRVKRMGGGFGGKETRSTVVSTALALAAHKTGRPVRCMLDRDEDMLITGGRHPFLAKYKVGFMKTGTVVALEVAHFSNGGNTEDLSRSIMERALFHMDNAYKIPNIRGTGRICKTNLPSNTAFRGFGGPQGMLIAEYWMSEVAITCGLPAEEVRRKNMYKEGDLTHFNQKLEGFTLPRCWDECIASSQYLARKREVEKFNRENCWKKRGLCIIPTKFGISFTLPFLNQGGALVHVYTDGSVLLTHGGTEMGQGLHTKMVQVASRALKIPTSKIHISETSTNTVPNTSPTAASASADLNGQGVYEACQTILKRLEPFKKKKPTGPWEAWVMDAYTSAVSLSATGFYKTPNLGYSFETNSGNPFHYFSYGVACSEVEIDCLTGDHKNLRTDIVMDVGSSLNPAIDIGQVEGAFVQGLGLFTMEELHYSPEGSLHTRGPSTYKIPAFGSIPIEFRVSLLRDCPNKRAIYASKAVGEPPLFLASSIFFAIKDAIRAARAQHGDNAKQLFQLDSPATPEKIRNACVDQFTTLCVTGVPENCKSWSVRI
smiles,measurement,setting,value
Oc1ncnc2[nH]ncc12 [Allopurinol],Creatinine,[1],41.8 ± 13.2^b μmol/L
same,ADA,[2],12.28 ± 7.88^b U/ml
same,XOD,[3],8.61 ± 2.46^b U/L
same,"effect on serum uric acid content, in words","[4]; hyperuricemia model rats, compared with model group",significantly decreased (p<0.01)
same,"Uric acid value, before administration","[4]; serum, SD male rats after modeling with oteracil potassium 2 g/kg daily, baseline before administration",230.4 ± 19.1 µmol/L
same,"Uric acid value, treatment for 10 days","[4]; serum, gavage, peptide samples 200 mg/kg, allopurinol 50 mg/kg, 10 days",89.5 ± 22.4^b μmol/L
same,"Uric acid value, treatment for 20 days","[4]; serum, gavage, peptide samples 200 mg/kg, allopurinol 50 mg/kg, 20 days",94.5 ± 13.9^b μmol/L
same,"Uric acid value, treatment for 30 days","[4]; serum, gavage, peptide samples 200 mg/kg, allopurinol 50 mg/kg, 30 days",92.8 ± 20.9^b μmol/L
